ChEMBL document CHEMBL1138130, “Synthesis and antibacterial activity of 3-O-acyl-6-O-carbamoyl erythromycin A derivatives” (2006)
Converted amounts (≈) assume the structure as drawn.

Columns and labels:
Assay type in all cases: functional
Staphylococcus aureus = experiment: Antibacterial activity against Staphylococcus aureus OC4172
Streptococcus pneumoniae [1] = experiment: Antibacterial activity against Streptococcus pneumoniae OC9132
Haemophilus influenzae = experiment: Antibacterial activity against Haemophilus influenzae OC4882
Streptococcus pneumoniae [2] = experiment: Antibacterial activity against erm(B) ribosomal methylase gene containing Streptococcus pneumoniae OC4051
Streptococcus pneumoniae [3] = experiment: Antibacterial activity against Mef(A) efflux pump containing Streptococcus pneumoniae OC4438

SMILES	MIC (Staphylococcus aureus) [µg/mL]	MIC (Streptococcus pneumoniae [1]) [µg/mL]	MIC (Haemophilus influenzae) [µg/mL]	MIC (Streptococcus pneumoniae [2]) [µg/mL]	MIC (Streptococcus pneumoniae [3]) [µg/mL]
CC[C@H]1OC(=O)[C@H](C)[C@@H](OC(=O)N(CC)CC)[C@H](C)[C@@H](O[C@@H]2O[C@H](C)C[C@H](N(C)C)[C@H]2O)[C@](C)(OC(=O)NC/C=C/c2ccc(-c3cccnn3)cc2)C[C@@H](C)C(=O)[C@H](C)[C@H]2NC(=O)O[C@@]21C	0.5 (≈ 0.534 µM)	0.06 (≈ 0.064 µM)	4 (≈ 4.27 µM)	0.25 (≈ 0.267 µM)	0.12 (≈ 0.128 µM)
CC[C@H]1OC(=O)[C@H](C)C(=O)[C@H](C)[C@@H](O[C@@H]2O[C@H](C)C[C@H](N(C)C)[C@H]2O)[C@](C)(OC)C[C@@H](C)C(=O)[C@H](C)[C@H]2N(CCCCn3cnc(-c4cccnc4)c3)C(=O)O[C@]12C [TELITHROMYCIN]	0.25 (≈ 0.308 µM)	0.03 (≈ 0.0369 µM)	2 (≈ 2.46 µM)	0.06 (≈ 0.0739 µM)	0.25 (≈ 0.308 µM)
CC[C@H]1OC(=O)[C@H](C)[C@@H](OC(=O)N(C)c2ccncc2)[C@H](C)[C@@H](O[C@@H]2O[C@H](C)C[C@H](N(C)C)[C@H]2O)[C@](C)(OC(=O)NC/C=C/c2ccc(-c3ncccn3)cc2)C[C@@H](C)C(=O)[C@H](C)[C@H]2NC(=O)O[C@@]21C	1 (≈ 1.03 µM)	0.06 (≈ 0.0617 µM)	8 (≈ 8.23 µM)	0.25 (≈ 0.257 µM)	0.25 (≈ 0.257 µM)
CC[C@H]1OC(=O)[C@H](C)[C@@H](OC(=O)Cc2ccncc2)[C@H](C)[C@@H](O[C@@H]2O[C@H](C)C[C@H](N(C)C)[C@H]2O)[C@](C)(OC(=O)NC/C=C/c2ccc(-c3ncccn3)cc2)C[C@@H](C)C(=O)[C@H](C)[C@H]2NC(=O)O[C@@]21C	0.25 (≈ 0.261 µM)	0.03 (≈ 0.0313 µM)	4 (≈ 4.18 µM)	0.25 (≈ 0.261 µM)	0.12 (≈ 0.125 µM)
CC[C@H]1OC(=O)[C@H](C)[C@@H](OC(=O)NC2CCCCC2)[C@H](C)[C@@H](O[C@@H]2O[C@H](C)C[C@H](N(C)C)[C@H]2O)[C@](C)(OC(=O)NC/C=C/c2ccc(-c3ncccn3)cc2)C[C@@H](C)C(=O)[C@H](C)[C@H]2NC(=O)O[C@@]21C	1 (≈ 1.04 µM)	0.12 (≈ 0.125 µM)	16 (≈ 16.6 µM)	4 (≈ 4.15 µM)	0.25 (≈ 0.26 µM)
